Here are results for nine molecules from patent US6867180B1, “Use of calreticulin and calreticulin fragments to inhibit endothelial cell growth and angiogenesis, and suppress tumor growth” (The United States of America as represented by the …, priority 1998, dated 2005).

Like-named read-outs stand apart in the source and are kept apart here. Where no end group is shown, it is not given here.

Assay [1] relates to Fetal bovine heart endothelial cells.
Description: Fetal bovine heart endothelial cells (American Type Culture Collection, ATCC, Manassas, Va.) were grown through passage 12 in DMEM culture medium (BioWhittaker, Walkersville, Md.) containing 10% heat inactivated fetal bovine serum (BioWhittaker), 100 ng/ml bFGF (R&D Systems, Minneapolis, Minn.), and 5 μg/ml gentamicin (Sigma). For proliferation assays, cells were trypsinized (Trypsin/EDTA, Gibco BRL), washed, suspended in culture medium (DMEM containing 10% heat inactivated fetal bovine serum and 5 μg/ml gentamicin), plated (800 cells/well in 0.2 ml culture medium) in triplicate onto 96 well plates, and incubated for 5 days.
Assay [2] relates to human B cell lines VDS-O and CA-46. The experiment in a line: Proliferation of indicator B cell lines. The following applies: 1-100 μg/ml. The class given is cell-based. The text has this: Human mononuclear cells, and mononuclear cells enriched for T or B lymphocytes, were used in proliferation assays in the presence of phytohemagglutinin (Sigma), pokeweed-mitogen (Sigma), or Epstein-Barr virus (B95-8 strain), as described (Tosato et al., J. Immunol. 140:4329-4336, 1988). The lymphoblastoid cell line VDS-O (Tosato, et al., J. Immunol. 137:2037-2042, 1986); the Burkitt lymphoma cell lines CA46, BL-41, KK124, Ag876, SHO (Cherney et al., Cancer Res. 57:2508-2515, 1997); the T-cell line Molt-4 (ATCC); the Hodgkin's lymphoma cell line Hs445 (ATCC); the prostate adenocarcinoma cell lines TSU-Prl (from A. Passaniti, NIH, Baltimore, Md.), Du145 (ATCC), and PC3 (ATCC); and the acute promyelocytic leukemia cell line HL-60 (ATCC) were cultured in RPMI 1640 medium with 10% heat inactivated fetal calf serum (BioWhittaker), 20 mM L-glutamine (Sigma) and 5 μg/ml gentamicin, and tested in 3-5 day proliferation assays at cell densities ranging from 300 to 2400 cells/well. All other cell lines were tested for proliferation in 3-day assays. The neuroblastoma cell line SKNMC (ATCC) was cultured in EMEM medium (BioWhittaker) with 10% heat inactivated fetal calf serum (BioWhittaker) and 5 μg/ml gentamicin (Sigma) and tested for proliferation at 125-1000 cells/well. The lung adenocarcinoma cell line A549 (ATCC) was cultured in F-12 Nutrient Mixture (HAM, GIBCO BRL) with 10% heat inactivated fetal calf serum (BioWhittaker) and 5 μg/ml gentamicin (Sigma), and tested for proliferation at 250-2000 cells/well. The breast adenocarcinoma MDA-MB-468 (ATCC) and the Wilms tumor SK-NEP-1(ATCC) cell lines were cultured in Leibovitz L-15 medium (GIBCO BRL) supplemented with 10% heat inactivated fetal calf serum (BioWhittaker) and 5 μg/ml gentamicin (Sigma), and tested for proliferation at 300-2500 cells/well. The colon carcinoma cell line SW480 (ATCC), the melanoma cell line A-375 (ATCC), and human foreskin fibroblasts (H568, ATCC) were cultured in DMEM medium (BioWhittaker) with 10% heat inactivated fetal calf serum (BioWhittaker) and 5 μg/ml gentamicin (Sigma), and were tested for proliferation at 500-4000 cells/well. All cell lines tested mycoplasma negative.

The target in assay [3] is T1, recombinant MBP-calreticulin fragment 120-180 (Seq. I.D. No. 5) (human, UniProt P14211 137-197 (mouse entry)).
T1 construct: also called MBP-120-180 calreticulin; 61 amino acid calreticulin fragment
T1 sequence: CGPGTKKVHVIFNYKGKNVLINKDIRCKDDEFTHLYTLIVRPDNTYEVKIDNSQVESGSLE
The experiment in a line: affinity column carrying a mixture of the three peptides on Sepharose. The procedure: To this end, purified preparations of the VDS-O cell line containing full length calreticulin (Seq. I.D. No. 3) as well as N-terminal calreticulin fragments were prepared and tested to determine how these components were retained over an affinity column. To prepare the affinity column, three peptides were synthesized ([…], Seq. I.D. 13; KAFFKR, Seq. I.D. No. 33; and KVFFKR, Seq. I.D. No. 32), purified, and coupled to CNBr-activated Sepharose 4B (Pharmacia). […] The purified preparations of VDS-O cell line containing both full length as well as N-terminal calreticulin fragments were then loaded on the column (Starting material).
To address this issue further, recombinant MBP-calreticulin fragment 120–180 (Seq. I.D. No. 5) was tested for its ability to bind to the affinity column described supra.

For assay [4], the system named is peptides KLGFFKR, KAFFKR and KVFFKR coupled to CNBr-activated Sepharose. The experiment in a line: Affinity column binding to integrin / steroid receptor motif peptides. The following applies: elution with 20 mM EDTA. From the text:
FIG. 18 is a Western blot analysis of fractions obtained through affinity purification over a column containing KXaa1FFXaa2R (Seq. I.D. No. 11) and KXaa1GFFKR (Seq. I.D. No. 10). Purified supernatants from the VDS-0 cell line containing full length calreticulin and N-terminal fragments of calreticulin were affinity purified over a mixture of peptides KLGFFKR (Seq. I.D. No. 13), KAFFKR (Seq. I.D. No. 33) and KVFFKR (Seq. I.D. No. 32) coupled to CNBr-activated Sepharose. Starting material (lane 1), unbound material (lanes 2, 3) and bound material (lanes 4, 5) were separated by SDS-PAGE, transferred to nitrocellulose, and subsequently stained with a rabbit antiserum against human calreticulin.
To this end, purified preparations of the VDS-O cell line containing full length calreticulin (Seq. I.D. No. 3) as well as N-terminal calreticulin fragments were prepared and tested to determine how these components were retained over an affinity column. To prepare the affinity column, three peptides were synthesized ([…], Seq. I.D. 13; KAFFKR, Seq. I.D. No. 33; and KVFFKR, Seq. I.D. No. 32), purified, and coupled to CNBr-activated Sepharose 4B (Pharmacia). First, the ability of calreticulin, purified from the culture supernatant of the lymphoblastoid cell line VDS-O, to selectively bind to the column and be eluted by a buffer solution containing 20 mM EDTA and 100 mM NaCl, was verified. […]

Assay [5] has as its system bFGF-induced neovascularization. The assay can be described thus: Murine Matrigel assay of angiogenesis in vivo. Set-up: species or system BALB/c nude mice. The following applies: Exp. 4; concentration not given; bFGF 150 ng/ml. The procedure:
The murine Matrigel assay (Passaniti et al., Lab. Invest. 67:519-528, 1992) was employed to evaluate the effects of calreticulin and calreticulin fragments on angiogenesis in vivo. The Matrigel assay was performed as described by Angiolillo et al. (J. Exp. Med. 182:155-162, 1995). Matrigel, a crude extract of the Englebreth-Holm-Swarm tumor, was obtained from Collaborative Biomedical Products, Becton Dickinson Labware, Bedford, Mass. An aliquot (0.5 ml) of Matrigel alone or with desired additives was injected subcutaneously (s.c.) into the mid abdominal region of female BALB/c nude mice, 6-8 weeks old. Five mice were injected with each mixture. After 5-7 days, the animals were sacrificed, Matrigel plugs were removed, fixed in 10% neutral buffered formalin solution (Sigma), and embedded in paraffin. Tissues were sectioned (5μ thickness), and slides stained with Masson's trichrome. Quantitative analysis of angiogenesis in Matrigel plugs utilized a computerized semi-automated digital analyzer (Optomax, 40-10 System, Hollis, N.H.). The instrument was adjusted to evaluate a circular area measuring […] of Matrigel, and within this area, to measure the area occupied by cells. For each plug, 12-15 distinct fields were evaluated. The fields were randomly selected from each plug, and the operator was blind to the experimental design. The average area occupied by cells/1.26×10^5 […] Matrigel field was calculated. Results are expressed as the mean area occupied by cells/Matrigel field.
Matrigel plugs were fixed in 10% neutral buffered formalin solution (Sigma), embedded in paraffin, sectioned at 4 μm, and stained with Masson's trichrome by standard methods.

The mark [6] stands for this setting: Table 3 exp. 1, 50 μg/ml, bFGF 25 ng/ml, 5 days.
Setting [7] is: Table 3 exp. 1, 100 μg/ml, bFGF 25 ng/ml, 5 days.
Setting [8] is: Table 3 exp. 2, 100 μg/ml, bFGF 25 ng/ml, 5 days.
[9] abbreviates: Table 3 exp. 1, 12.5 μg/ml, bFGF 25 ng/ml, 5 days.
[10] abbreviates: Table 3 exp. 1, 25 μg/ml, bFGF 25 ng/ml, 5 days.
The mark [11] stands for this setting: Table 3 exp. 2, 50 μg/ml, bFGF 25 ng/ml, 5 days.
[12] abbreviates: Table 1 exp. 3, estimated concentration 0.160 μg/ml, bFGF 25 ng/ml, 5 days.
Setting [13] is: Table 1 exp. 1-2, 1 μg/ml, bFGF 25 ng/ml, 5 days.

For the molecule “GPGTKKVHVIFNYKGKNVLINKDIRCKDDEFTHLYTLIVRPDNTYEVKIDNSQVESGSLE [60 amino acid peptide]”, the “Inhibition (%)” value in assay [1] (setting [6]) amounted to 40.1%; in assay [1] (setting [7]) it was 87.9%; in assay [1] (setting [8]), 59.5%. Moreover, the “Proliferation (mean cpm/culture)” value is 8,318 cpm/culture in assay [1] (setting [6]), 1,688 cpm/culture in assay [1] (setting [7]) and 3,709 cpm/culture in assay [1] (setting [8]). Further, the “effect on proliferation of B cell lines VDS-O and CA-46” value in assay [2] is “neither peptide inhibited the proliferation”; in assay [2] (listed as 60 amino acid fragment) it was “minimal effect”.
“NYKGKNVLINKDIRCKDDEFTHLYTLIVRPDNTYEVKIDNSQVESGSLE [49 amino acid peptide]”: the “Inhibition (%)” value in assay [1] (setting [9]) was 30.2%; in assay [1] (setting [10]) it was 56.7%; in assay [1] (setting [6]), 68.7%; in assay [1] (setting [11]), 45.4%. Also, the “Proliferation (mean cpm/culture)” value was 9,743 cpm/culture in assay [1] (setting [9]), 6,037 cpm/culture in assay [1] (setting [10]), 4,368 cpm/culture in assay [1] (setting [6]) and 5,004 cpm/culture in assay [1] (setting [11]). The results for the “effect on proliferation of B cell lines VDS-O and CA-46” value in assay [2] and in assay [2] (listed as 49 amino acid fragment) were “neither peptide inhibited the proliferation” and “minimal effect”, respectively.
As to RANTES [reference compound], the “inhibitory effect of control peptide in endothelial cell assays” value in assay [1] was “no inhibitory effect”. The “Proliferation (mean cpm/culture)” value is recorded as 16,443 cpm/culture in assay [1] (setting [7]); 13,644 cpm/culture in assay [1] (Table 3 exp. 2, 12.5 μg/ml, bFGF 25 ng/ml, 5 days); 10,291 cpm/culture in assay [1] (setting [11]).
For “light chain of human ferritin: recombinant purified light chain of human ferritin [reference compound]”, in assay [1] (1 pg to 1 μg/ml, not shown), the “effect on the proliferation of endothelial cells” value was “minimal effect”.

B1: peptide KAFFKR (Seq. I.D. No. 33) (peptide)
peptide: KAFFKR
notes: Synthetic peptide, coupled to Sepharose in a mixture with the two other peptides; also called portion of the estrogen receptor
With B1, the binding result in assay [3] is on record as “no binding”.

B2: peptide KVFFKR (Seq. I.D. No. 32) (peptide)
peptide: KVFFKR
notes: Synthetic peptide, coupled to Sepharose in a mixture with the two other peptides; also called portion of the glucocorticoid receptor
As for B2, in assay [3], the binding result is listed as “no binding”.

B3: peptide KLGFFKR (Seq. I.D. No. 13) (peptide)
peptide: KLGFFKR
notes: Synthetic peptide, coupled to Sepharose in a mixture with the two other peptides; also called portion of an integrin
As for B3, the binding result in assay [3] is on record as “no binding”.

B4: Gel-eluted calreticulin: natural calreticulin from purified VDS-O B cell line supernatant, 55 kDa band eluted from gel (protein)
chain: EPAVYFKEQFLDGDGWTSRWIESKHKSDFGKFVLSSGKFYGDEEKDKGLQTSQDARFYALSASFEPFSNKGQTLVVQFTVKHEQNIDCGGGYVKLFPNSLDQTDMHGDSEYNIMFGPDICGPGTKKVHVIFNYKGKNVLINKDIRCKDDEFTHLYTLIVRPDNTYEVKIDNSQVESGSLEDDWDFLPPKKIKDPDASKPEDWDERAKIDDPTDSKPEDWDKPEHIPDPDAKKPEDWDEEMDGEWEPPVIQNPEYKGEWKPRQIDNPDYKGTWIHPEIDNPEYSPDPSIYAYDNFGVLGLDLWQVKSGTIFDNFLITNDEAYAEEFGNETWGVTKAAEKQMKDKQDEEQRLKEEEEDKKRKEEEEAEDKEDDEDKDEDEEDEEDKEEDEEEDVPGQAKDEL
As to B4, in assay [1] (setting [12]), the “Inhibition (%)” value is 81% and the Proliferation (mean cpm/culture) is 11,226 cpm/culture. Moreover, in assay [4], the “binding to peptide affinity column” value is on record as “retained by the column”.

B5: Cleaved calreticulin: calreticulin cleaved (factor Xa) and purified from MBP-calreticulin (protein, UniProt P27797 18-417, looked up)
Calreticulin: B4 chain
On to B5, for which, in assay [1] (setting [13]), the “Inhibition (%)” value came out at 72% and the “Proliferation mean cpm/culture (±SD)” value was 7,088 (1846) cpm/culture. Further, in assay [5], the “Inhibition (%)” value is 58% and the “Mean Surface Area Occupied by Cells” value was 3,464 mm^2/1.26 × 10^5 mm^2.
